# Biological target: T1, TRPC5 (Homo sapiens, UniProt Q9UL62)
# T1 sequence (Q9UL62 1-973): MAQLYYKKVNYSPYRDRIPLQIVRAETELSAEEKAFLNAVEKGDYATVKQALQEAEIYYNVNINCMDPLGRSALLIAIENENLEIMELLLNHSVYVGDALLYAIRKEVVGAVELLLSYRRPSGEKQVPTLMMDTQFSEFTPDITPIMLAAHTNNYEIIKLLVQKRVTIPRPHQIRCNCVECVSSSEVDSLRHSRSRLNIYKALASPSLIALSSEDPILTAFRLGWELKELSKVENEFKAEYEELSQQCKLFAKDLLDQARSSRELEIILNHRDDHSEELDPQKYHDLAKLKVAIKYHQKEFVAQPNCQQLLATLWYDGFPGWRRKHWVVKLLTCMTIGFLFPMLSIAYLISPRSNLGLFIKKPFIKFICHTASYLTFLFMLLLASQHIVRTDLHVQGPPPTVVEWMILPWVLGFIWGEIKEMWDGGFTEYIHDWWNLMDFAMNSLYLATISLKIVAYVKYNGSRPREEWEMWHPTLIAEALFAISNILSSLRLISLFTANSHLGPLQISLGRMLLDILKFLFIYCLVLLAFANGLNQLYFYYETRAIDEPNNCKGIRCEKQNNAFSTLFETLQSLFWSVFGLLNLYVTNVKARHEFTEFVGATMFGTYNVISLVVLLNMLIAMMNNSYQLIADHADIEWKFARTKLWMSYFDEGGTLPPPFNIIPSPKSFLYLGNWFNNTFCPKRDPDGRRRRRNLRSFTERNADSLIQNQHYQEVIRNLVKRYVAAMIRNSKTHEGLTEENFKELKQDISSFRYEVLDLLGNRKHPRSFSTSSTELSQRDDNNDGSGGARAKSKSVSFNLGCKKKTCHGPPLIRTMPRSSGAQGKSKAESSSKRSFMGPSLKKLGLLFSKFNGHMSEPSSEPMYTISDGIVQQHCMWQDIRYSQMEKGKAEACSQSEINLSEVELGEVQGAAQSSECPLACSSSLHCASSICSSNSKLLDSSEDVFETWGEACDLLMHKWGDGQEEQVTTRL
# Assay type: cell-based
compound,measurement,value
"CC(=O)[C@H]1CC[C@H]2[C@@H]3CCC4=CC(=O)CC[C@]4(C)[C@H]3CC[C@]12C [prog, progesterone]",IC50,5 µM

# Source: publication PMC3057289 (2011)
